# Laboratory results reported in patent US20110230481A2, “DERIVATIVES OF TETRABROMOBENZIMIDAZOLE, A PROCESS FOR THE PREPARATION THEREOF, A PHARMACEUTICAL COMPOSITION COMPRISING THE SAME, A METHOD OF USING THE SAME, A METHOD FOR MODULATING OR REGULATING SERINE/THREONINE KINASES, AND SERINE/THREONINE KINASES MODULATING AGENT” (SELVITA S.A., priority 2009, published 2011).
# Columns and labels:
# Assay in all cases: KINOMEscan Max
# Assay type in all cases: binding
# [1] = biological target: T1, PRKD1 (Homo sapiens, UniProt Q15139)
# T1 construct: DNA tag (qPCR read-out)
# Summary of the method: (§1)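 Compound displacement of DNA-tagged kinase from immobilized active-site ligand; qPCR of tag as read-out.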
# [2] = biological target: T2, SNARK (Homo sapiens, UniProt Q9H093); details: 1 μM
# T2 construct: DNA tag (qPCR read-out)
# T2 sequence (Q9H093 whole entry): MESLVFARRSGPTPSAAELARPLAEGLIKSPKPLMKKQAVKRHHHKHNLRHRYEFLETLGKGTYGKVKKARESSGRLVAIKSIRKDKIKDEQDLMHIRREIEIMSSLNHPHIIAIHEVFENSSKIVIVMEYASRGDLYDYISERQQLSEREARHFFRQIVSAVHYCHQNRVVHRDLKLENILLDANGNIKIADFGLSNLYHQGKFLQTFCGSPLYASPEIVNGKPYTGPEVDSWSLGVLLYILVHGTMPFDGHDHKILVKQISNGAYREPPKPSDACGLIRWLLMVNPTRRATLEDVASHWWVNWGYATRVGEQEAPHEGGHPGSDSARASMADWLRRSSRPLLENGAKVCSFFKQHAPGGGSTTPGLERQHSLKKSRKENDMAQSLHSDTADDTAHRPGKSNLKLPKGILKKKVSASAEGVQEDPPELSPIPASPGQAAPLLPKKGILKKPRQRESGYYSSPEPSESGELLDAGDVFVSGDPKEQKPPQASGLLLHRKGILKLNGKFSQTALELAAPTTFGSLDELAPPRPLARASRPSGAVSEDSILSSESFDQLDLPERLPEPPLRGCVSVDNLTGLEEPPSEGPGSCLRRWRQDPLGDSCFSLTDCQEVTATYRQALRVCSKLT
# Summary of the method: as §1
# [3] = biological target: T3, RSK3(Kin.Dom.1-N-terminal) (Homo sapiens, UniProt Q15349)
# T3 construct: RSK3(Kin.Dom.1-N-terminal); DNA tag (qPCR read-out)
# Summary of the method: as §1
# [4] = biological target: ABL1(Q252H)-nonphosphorylated (Homo sapiens, UniProt P00519, Q252H)
# Summary of the method: as §1
# [5] = biological target: T4, CDKL1 (Homo sapiens, UniProt Q00532)
# T4 construct: DNA tag (qPCR label); purchased Ambit Kinomescan (contract screening)
# Summary of the method: as §1
# [6] = biological target: T5, PYK2 (Homo sapiens, UniProt Q14289)
# T5 construct: DNA tag (qPCR read-out)
# Summary of the method: as §1
# [7] = biological target: T6, YANK1 (Homo sapiens, UniProt Q8WU08)
# T6 construct: purchased Ambit Kinomescan (contract screening service)
# Summary of the method: as §1
# [8] = biological target: T7, GAK (Homo sapiens, UniProt O14976)
# T7 construct: purchased Ambit (KINOMEscan Max service)
# Summary of the method: as §1
# [9] = biological target: ABL1-phssophorylated (Homo sapiens, UniProt P00519)
# Summary of the method: as §1
# [10] = biological target: BRAF(V600E) (Homo sapiens, UniProt P15056, V600E)
# BRAF(V600E), sequence (P15056 whole entry V600E): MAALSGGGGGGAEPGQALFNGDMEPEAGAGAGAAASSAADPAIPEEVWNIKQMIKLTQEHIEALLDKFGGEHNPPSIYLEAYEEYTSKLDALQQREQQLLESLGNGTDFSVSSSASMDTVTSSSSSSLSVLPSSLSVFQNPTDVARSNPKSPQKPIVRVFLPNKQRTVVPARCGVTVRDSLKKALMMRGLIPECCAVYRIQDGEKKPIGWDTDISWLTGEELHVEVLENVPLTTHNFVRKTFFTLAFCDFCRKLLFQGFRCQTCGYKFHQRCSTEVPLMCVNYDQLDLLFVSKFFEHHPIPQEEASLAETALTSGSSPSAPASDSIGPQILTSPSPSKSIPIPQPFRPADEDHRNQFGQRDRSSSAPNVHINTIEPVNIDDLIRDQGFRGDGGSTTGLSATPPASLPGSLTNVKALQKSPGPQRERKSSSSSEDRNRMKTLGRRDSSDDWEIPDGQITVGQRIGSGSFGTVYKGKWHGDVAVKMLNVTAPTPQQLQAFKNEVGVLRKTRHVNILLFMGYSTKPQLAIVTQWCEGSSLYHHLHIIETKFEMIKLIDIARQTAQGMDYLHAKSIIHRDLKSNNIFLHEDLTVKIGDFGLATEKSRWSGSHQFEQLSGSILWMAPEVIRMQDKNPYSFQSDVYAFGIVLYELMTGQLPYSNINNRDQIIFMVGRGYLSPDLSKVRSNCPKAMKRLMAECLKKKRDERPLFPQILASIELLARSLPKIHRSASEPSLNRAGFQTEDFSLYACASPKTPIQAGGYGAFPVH
# Summary of the method: as §1
# [11] = biological target: T8, MAP3K3 (Homo sapiens, UniProt Q99759)
# T8 construct: purchased Ambit Kinomescan (contract panel)
# Summary of the method: as §1
# [12] = biological target: WEE1 (Homo sapiens, UniProt P30291)
# WEE1, sequence (P30291 whole entry): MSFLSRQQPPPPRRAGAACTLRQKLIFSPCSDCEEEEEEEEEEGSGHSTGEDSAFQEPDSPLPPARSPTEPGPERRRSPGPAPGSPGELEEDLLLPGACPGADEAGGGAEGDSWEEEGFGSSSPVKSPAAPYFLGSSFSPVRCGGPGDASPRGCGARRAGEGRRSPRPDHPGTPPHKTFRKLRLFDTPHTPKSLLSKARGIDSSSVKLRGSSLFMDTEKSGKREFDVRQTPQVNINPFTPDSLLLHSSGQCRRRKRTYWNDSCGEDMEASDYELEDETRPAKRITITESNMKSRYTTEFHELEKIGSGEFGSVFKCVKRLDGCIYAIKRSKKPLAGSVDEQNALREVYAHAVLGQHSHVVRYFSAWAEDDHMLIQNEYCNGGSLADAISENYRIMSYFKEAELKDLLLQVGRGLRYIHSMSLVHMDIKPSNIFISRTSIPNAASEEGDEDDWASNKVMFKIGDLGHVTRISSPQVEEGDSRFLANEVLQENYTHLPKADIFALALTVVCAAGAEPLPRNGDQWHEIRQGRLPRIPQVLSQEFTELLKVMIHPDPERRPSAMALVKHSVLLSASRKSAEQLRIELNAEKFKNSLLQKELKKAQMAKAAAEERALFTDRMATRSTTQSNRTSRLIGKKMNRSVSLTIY
# Summary of the method: as §1
# [13] = biological target: MAST1 (Homo sapiens, UniProt Q9Y2H9)
# Summary of the method: as §1
# [14] = biological target: T9, MELK (Homo sapiens, UniProt Q14680)
# T9 construct: purchased Ambit (KINOMEscan Max service)
# Summary of the method: as §1
# [15] = biological target: T10, JNK1 (Homo sapiens, UniProt P45983); details: 1 μM
# T10 construct: purchased Ambit Kinomescan (contract panel)
# Summary of the method: as §1
# [16] = biological target: T11, MKNK2 (Homo sapiens, UniProt Q9HBH9)
# T11 construct: DNA tag (qPCR read-out)
# Summary of the method: as §1
# [17] = biological target: T12, ABL1(F317L)-nonphosphorylated (Homo sapiens, UniProt P00519, F317L)
# T12 construct: purchased Ambit (KINOMEscan Max service)
# Summary of the method: as §1
# [18] = biological target: T13, CAMK1G (Homo sapiens, UniProt Q96NX5)
# T13 construct: DNA tag (qPCR label); purchased Ambit Kinomescan (contract screening)
# T13 sequence (Q96NX5 whole entry): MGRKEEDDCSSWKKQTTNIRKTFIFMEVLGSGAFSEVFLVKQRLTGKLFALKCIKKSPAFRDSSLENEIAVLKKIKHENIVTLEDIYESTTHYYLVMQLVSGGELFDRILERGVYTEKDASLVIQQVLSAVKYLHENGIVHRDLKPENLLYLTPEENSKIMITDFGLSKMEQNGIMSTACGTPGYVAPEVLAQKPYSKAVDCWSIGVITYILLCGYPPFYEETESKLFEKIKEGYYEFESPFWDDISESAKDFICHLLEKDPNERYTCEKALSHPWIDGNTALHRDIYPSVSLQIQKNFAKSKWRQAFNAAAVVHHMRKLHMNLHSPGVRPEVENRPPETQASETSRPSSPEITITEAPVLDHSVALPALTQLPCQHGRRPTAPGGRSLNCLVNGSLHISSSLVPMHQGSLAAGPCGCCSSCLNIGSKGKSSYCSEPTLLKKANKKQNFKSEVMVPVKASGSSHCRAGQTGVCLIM
# Summary of the method: as §1
# [19] = biological target: T14, CDK5 (Homo sapiens, UniProt Q00535)
# T14 construct: DNA tag (qPCR label); purchased Ambit Kinomescan (contract screening)
# T14 sequence (Q00535 whole entry): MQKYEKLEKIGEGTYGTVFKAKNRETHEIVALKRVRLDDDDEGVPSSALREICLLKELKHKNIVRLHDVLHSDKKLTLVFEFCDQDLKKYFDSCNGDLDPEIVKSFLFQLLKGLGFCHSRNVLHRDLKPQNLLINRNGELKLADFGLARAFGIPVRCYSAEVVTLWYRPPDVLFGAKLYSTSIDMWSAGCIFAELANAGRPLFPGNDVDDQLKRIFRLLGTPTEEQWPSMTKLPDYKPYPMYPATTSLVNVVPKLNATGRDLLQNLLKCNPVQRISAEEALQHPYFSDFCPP
# Summary of the method: as §1
# [20] = biological target: T15, EGFR(E746-A750del) (Homo sapiens, UniProt P00533, DEL746-750); details: 1 μM
# T15 construct: purchased Ambit (KINOMEscan Max service)
# Summary of the method: as §1
# [21] = biological target: T16, EGFR(L747-E749del. A750P) (Homo sapiens, UniProt P00533, A750P/DEL747-749); details: 1 μM
# T16 construct: purchased Ambit (KINOMEscan Max panel service)
# Summary of the method: as §1
# [22] = biological target: T17, TAOK2 (Homo sapiens, UniProt Q9UL54)
# T17 construct: DNA tag (qPCR read-out)
# Summary of the method: as §1
# [23] = biological target: T18, ALK (Homo sapiens, UniProt Q9UM73)
# T18 construct: DNA tag (qPCR label); purchased Ambit Kinomescan (contract screening)
# T18 sequence (Q9UM73 19-1620): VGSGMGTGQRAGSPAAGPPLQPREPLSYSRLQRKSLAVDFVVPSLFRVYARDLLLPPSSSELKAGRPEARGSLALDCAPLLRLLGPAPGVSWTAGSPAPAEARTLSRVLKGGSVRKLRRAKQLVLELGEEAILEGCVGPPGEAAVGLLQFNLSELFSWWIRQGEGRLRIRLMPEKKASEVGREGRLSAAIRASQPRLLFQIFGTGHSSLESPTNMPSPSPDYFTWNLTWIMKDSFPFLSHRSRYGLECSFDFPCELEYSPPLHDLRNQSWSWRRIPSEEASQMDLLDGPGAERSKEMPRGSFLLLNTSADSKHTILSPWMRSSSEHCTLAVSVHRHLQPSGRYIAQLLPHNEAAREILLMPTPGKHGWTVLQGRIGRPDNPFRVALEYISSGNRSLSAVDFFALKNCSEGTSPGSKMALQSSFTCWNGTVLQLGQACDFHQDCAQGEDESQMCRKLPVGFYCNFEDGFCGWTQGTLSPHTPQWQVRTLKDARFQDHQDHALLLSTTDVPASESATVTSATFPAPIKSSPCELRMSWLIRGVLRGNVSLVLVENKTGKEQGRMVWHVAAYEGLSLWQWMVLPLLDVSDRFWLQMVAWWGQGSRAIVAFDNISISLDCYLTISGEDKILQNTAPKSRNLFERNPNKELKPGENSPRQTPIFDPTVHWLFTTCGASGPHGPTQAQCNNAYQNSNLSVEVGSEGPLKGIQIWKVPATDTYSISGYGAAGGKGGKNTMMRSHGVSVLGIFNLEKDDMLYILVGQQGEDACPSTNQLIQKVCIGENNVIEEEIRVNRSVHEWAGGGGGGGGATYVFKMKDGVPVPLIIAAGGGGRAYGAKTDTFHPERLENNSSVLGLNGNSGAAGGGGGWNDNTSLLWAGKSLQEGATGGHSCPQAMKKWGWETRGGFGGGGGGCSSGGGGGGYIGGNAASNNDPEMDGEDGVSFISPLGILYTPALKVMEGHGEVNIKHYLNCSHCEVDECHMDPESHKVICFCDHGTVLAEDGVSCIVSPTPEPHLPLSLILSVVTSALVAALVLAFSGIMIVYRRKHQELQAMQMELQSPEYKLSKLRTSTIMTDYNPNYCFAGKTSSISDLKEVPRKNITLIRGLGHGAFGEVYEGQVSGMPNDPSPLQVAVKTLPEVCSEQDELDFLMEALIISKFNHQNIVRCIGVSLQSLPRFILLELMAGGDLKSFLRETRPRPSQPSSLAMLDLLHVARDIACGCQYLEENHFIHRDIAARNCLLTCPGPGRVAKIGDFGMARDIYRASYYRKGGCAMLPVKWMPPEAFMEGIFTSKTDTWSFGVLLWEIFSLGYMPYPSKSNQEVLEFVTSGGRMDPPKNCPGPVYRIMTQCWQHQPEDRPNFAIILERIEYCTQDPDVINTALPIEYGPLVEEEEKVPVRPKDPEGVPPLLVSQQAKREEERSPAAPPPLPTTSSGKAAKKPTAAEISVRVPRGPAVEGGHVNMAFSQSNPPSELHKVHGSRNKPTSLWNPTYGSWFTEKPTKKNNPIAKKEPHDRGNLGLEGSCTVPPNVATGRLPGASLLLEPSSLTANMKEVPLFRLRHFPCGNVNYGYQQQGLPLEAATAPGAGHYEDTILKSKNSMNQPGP
# Summary of the method: as §1
# [24] = biological target: MAP4K2 (Homo sapiens, UniProt Q12851)
# Summary of the method: as §1
# [25] = biological target: T19, MAP4K3 (Homo sapiens, UniProt Q8IVH8); details: 1 μM
# T19 construct: purchased Ambit (KINOMEscan Max service)
# Summary of the method: as §1
# [26] = biological target: T20, DYRK2 (Homo sapiens, UniProt Q92630)
# T20 construct: DNA tag (qPCR read-out); purchased Ambit Kinomescan
# Summary of the method: as §1
# [27] = biological target: T21, ACVRL1 (Homo sapiens, UniProt P37023)
# T21 construct: DNA tag (qPCR label); purchased Ambit Kinomescan (contract screening)
# Summary of the method: as §1
# [28] = biological target: LIMK1 (Homo sapiens, UniProt P53667)
# Summary of the method: as §1
# [29] = biological target: T22, ITK (Homo sapiens, UniProt Q08881); details: 1 μM
# T22 construct: purchased Ambit Kinomescan (contract panel)
# Summary of the method: as §1
# [30] = biological target: T23, AXL (Homo sapiens, UniProt P30530)
# T23 construct: DNA tag (qPCR read-out)
# Summary of the method: as §1
# [31] = biological target: T24, BTK (Homo sapiens, UniProt Q06187); details: 1 μM
# T24 construct: purchased Ambit (KINOMEscan Max service)
# T24 sequence (Q06187 whole entry): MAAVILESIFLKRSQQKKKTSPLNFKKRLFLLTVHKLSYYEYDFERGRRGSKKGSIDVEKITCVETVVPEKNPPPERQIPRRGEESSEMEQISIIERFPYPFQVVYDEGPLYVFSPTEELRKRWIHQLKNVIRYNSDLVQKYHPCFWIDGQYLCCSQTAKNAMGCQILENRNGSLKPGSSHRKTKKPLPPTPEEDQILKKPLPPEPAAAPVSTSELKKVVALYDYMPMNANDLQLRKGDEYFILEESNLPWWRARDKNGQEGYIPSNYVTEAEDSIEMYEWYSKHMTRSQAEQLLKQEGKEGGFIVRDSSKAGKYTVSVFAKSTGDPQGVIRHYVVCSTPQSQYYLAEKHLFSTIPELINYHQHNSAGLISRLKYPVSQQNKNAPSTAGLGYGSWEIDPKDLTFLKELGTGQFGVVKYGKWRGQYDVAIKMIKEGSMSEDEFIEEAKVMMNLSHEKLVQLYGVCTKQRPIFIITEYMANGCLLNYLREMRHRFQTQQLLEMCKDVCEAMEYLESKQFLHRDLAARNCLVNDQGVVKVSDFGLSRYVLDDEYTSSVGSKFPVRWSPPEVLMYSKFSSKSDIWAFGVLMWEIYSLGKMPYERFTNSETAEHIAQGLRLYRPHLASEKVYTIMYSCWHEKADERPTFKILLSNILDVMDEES
# Summary of the method: as §1
# [32] = biological target: T25, DRAK2 (Homo sapiens, UniProt O94768)
# T25 construct: purchased Ambit (KINOMEscan Max panel service)
# Summary of the method: as §1
# [33] = biological target: T26, MET(Y1235D) (Homo sapiens, UniProt P08581, Y1235D); details: 1 μM
# T26 construct: purchased Ambit (KINOMEscan Max service)
# Summary of the method: as §1
# [34] = biological target: T27, MAP3K1 (Homo sapiens, UniProt Q13233)
# T27 construct: purchased Ambit Kinomescan (contract panel)
# Summary of the method: as §1
smiles,measurement,setting,value
"NCCCNc1nc2c(Br)c(Br)c(Br)c(Br)c2[nH]1 [Compound 11, N-(3-aminopropyl)-4,5,6,7-tetrabromo-1H-benzo[d]imidazol-2-amine]",remaining binding at 1 µM,[1],28%
same,% binding,[2],54%
same,remaining binding at 1 µM,[3],100%
same,remaining binding at 1 µM,[4],95%
same,remaining binding at 1 µM,[5],100%
same,remaining binding at 1 µM,[6],100%
same,remaining binding at 1 µM,[7],100%
same,remaining binding at 1 µM,[8],81%
same,remaining binding at 1 µM,[9],94%
same,remaining binding at 1 µM,[10],96%
same,remaining binding at 1 µM,[11],100%
same,remaining binding at 1 µM,[12],91%
same,remaining binding at 1 µM,[13],95%
same,remaining binding at 1 µM,[14],82%
same,% binding,[15],100%
same,remaining binding at 1 µM,[16],35%
same,remaining binding at 1 µM,[17],67%
same,remaining binding at 1 µM,[18],100%
same,remaining binding at 1 µM,[19],100%
same,% binding,[20],72%
same,% binding,[21],100%
same,remaining binding at 1 µM,[22],100%
same,remaining binding at 1 µM,[23],100%
same,remaining binding at 1 µM,[24],78%
same,% binding,[25],85%
same,remaining binding at 1 µM,[26],4.5%
same,remaining binding at 1 µM,[27],100%
same,remaining binding at 1 µM,[28],96%
same,% binding,[29],100%
same,remaining binding at 1 µM,[30],90%
same,% binding,[31],85%
same,remaining binding at 1 µM,[32],100%
same,% binding,[33],70%
same,remaining binding at 1 µM,[34],100%
